One data set deals with PDE10 from pig striatum (Sus scrofa, UniProt A0A287B941). Briefly: Inhibition of PDE10 from pig striatum ([3H]-cAMP SPA, Methods A and B). The class given is biochemical. As to conditions: PDE10 pig. The protocol:
Striatum from male Wistar rats (180-200 g), male hybrid pigs (150 kg) and male guinea pigs (CRL (HA), 500 g) respectively were collected and frozen at −70° C. At the day of preparation 0.5 g striatum was homogenised in 10 ml 50 mM Tris/Mg-buffer at 4° C. and centrifuged for one hour at 100000 g. The supernatant is called the cytosolic fraction and was removed and stored on ice. The pellet was resuspended in the same buffer, but containing 1% Triton and incubated for 45 min at 4° C. Both fractions were independently applied onto a 5 ml Hi Trap™ QHP column at the Äkta-FPLC. After washing the columns the bound PDE protein was eluted with an increasing sodium chloride gradient (0 mM-500 mM sodium chloride) in 50 mM Tris/Mg-buffer at 4° C. for the cytosolic fraction and in the presence of 1% Triton for the membrane fraction. […] The fractions with PDE10-activity were pooled and frozen in aliquots until use at −20° C. PDE10 activity was determined in a one step procedure in microtiter plates. […] Nonspecific activity was tested without the enzyme. The reaction was initiated by addition of the substrate solution and was carried out at 37° C. for 30 minutes. Enzymatic activity was stopped by addition of 25 μl YSi-SPA-beads (Amersham-Pharmacia). One hour later the mixture was measured in a liquid scintillation counter for microtiter plates (Microbeta Trilux). To pipette the incubation mixture a robot Biomek (Fa. Beckman) is used. […] For determination of IC50 values the Hill-plot, 2-parameter-model, was used. […] Striatum from male hybrid pigs (150 kg) were collected and frozen at −70° C. At the day of preparation 0.5 g striatum was homogenised in 10 ml 50 mM Tris/Mg-buffer at 4° C. and centrifuged for one hour at 100000 g. The supernatant was removed and the pellet was resuspended in the same buffer, but containing 1% Triton and incubated for 45 min at 4° C. The membrane fraction was applied onto a 5 ml Hi Trap™ QHP column at the Äkta-FPLC. After washing the column the bound PDE protein was eluted with an increasing sodium chloride gradient (0 mM-500 mM sodium chloride) in 50 mM Tris/Mg-buffer at 4° C. in the presence of 1% Triton. […] The fractions with PDE10-activity were pooled and frozen in aliquots until use at −20° C. PDE10 activity was determined in a one step procedure in microtiterplates. […] Nonspecific activity was tested without the enzyme. The reaction was initiated by addition of the substrate solution and was carried out at 37° C. for 30 minutes. Enzymatic activity was stopped by addition of 25 μl YSi-SPA-beads (Amersham-Pharmacia). One hour later the mixture was measured in a liquid scintillation counter for microtiterplates (Microbeta Trilux). To pipette the incubation mixture a robot Biomek (Fa. Beckman) is used. […] For determination of IC50 values the Hill-plot, 2-parameter-model, was used.

In the next data set the target is T1, human recombinant PDE10A (Homo sapiens, UniProt Q9Y233).
T1 construct: made in house; host or cells: SF21 insect cells (baculovirus)
Briefly: Inhibition of human recombinant PDE10A ([3H]-cAMP SPA, Method B). The class given is biochemical. As to conditions: read-out: PDE10 inhibition IC50 [nM] PDE10A human.

Data set [1] has as its system rats. Particulars: Kostowski et al. 1976; cited from earlier work.
Data set [2] deals with rats. Particulars: Kostowski et al. 1976; cited from earlier work. This is another data set of the same source.
Data set [3] concerns rats. As to conditions: Kostowski et al. 1976; cited from earlier work. The source holds these as a separate data set.

Structures are written as SMILES.

The term melting point denotes the temperature, or range, at which the solid turns liquid. The IC50 is the concentration at which inhibition is half-maximal.

T1 sequence (Q9Y233 1-779 isoform Q9Y233-1): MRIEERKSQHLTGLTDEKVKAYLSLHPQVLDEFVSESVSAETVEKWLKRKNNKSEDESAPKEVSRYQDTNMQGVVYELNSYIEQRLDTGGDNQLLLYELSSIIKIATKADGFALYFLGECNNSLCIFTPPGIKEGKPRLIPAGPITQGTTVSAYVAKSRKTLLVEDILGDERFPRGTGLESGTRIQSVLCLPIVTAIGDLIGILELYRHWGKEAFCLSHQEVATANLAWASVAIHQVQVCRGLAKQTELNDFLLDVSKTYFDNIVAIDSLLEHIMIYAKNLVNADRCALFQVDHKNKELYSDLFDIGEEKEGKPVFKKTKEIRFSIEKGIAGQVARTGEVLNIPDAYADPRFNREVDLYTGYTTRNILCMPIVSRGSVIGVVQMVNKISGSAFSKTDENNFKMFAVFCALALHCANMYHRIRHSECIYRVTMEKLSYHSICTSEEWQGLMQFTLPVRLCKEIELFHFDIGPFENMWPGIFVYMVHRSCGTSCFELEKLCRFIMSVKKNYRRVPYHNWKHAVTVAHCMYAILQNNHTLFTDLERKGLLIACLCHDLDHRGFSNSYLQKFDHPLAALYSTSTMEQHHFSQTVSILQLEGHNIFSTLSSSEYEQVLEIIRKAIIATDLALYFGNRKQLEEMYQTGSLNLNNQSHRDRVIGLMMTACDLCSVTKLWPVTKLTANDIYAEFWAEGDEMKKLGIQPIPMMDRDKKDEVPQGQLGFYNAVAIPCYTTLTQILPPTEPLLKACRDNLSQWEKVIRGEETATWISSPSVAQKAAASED

In turn, `CCCc1nc(C)c2c(N)nc3ccccc3n12` [Example 4, 3-Methyl-1-propyl-imidazo(1,5-a)quinoxalin-4-ylamine] came in with a melting point of 187 to 188 °C. Further, on PDE10 from pig striatum, the IC50 is ≥ 100 nM.
`CCc1nc(C)c2c(N)nc3ccc(F)cc3n12` [Example 5, 1-Ethyl-8-fluoro-3-methyl-imidazo(1,5-a)quinoxalin-4-ylamine] returned a melting point of 238 to 239 °C. Also, the half-inhibitory concentration (IC50) against PDE10 from pig striatum was ≥ 100 nM.
In turn, `CCCc1nc(C)c2c(N)nc3ccc(F)cc3n12` [Example 6, 8-Fluoro-3-methyl-1-propyl-imidazo(1,5-a)quinoxalin-4-ylamine] returned a melting point of 240 to 243 °C. Further, at PDE10 from pig striatum, the IC50 is 10 to 100 nM.
As for `Cc1nc(C2CCCCC2)n2c1c(C)nc1ccc(Cl)cc12` [Example 10, 8-Chloro-1-cyclohexyl-3,4-dimethyl-imidazo(1,5-a)quinoxaline], the melting point is 228 to 234 °C. On PDE10 from pig striatum, this compound showed a 50% inhibitory concentration (IC50) of 10 to 100 nM.
The matching figures for `CCc1nc(C)c2c(C)nc3ccccc3n12` [Example 11, 3,4-Dimethyl-1-ethyl-imidazo(1,5-a)quinoxaline]: 123 to 125 °C and ≥ 100 nM.
Compound `CCc1nc(C)c2c(C)nc3ccc(F)cc3n12` [Example 12, 3,4-Dimethyl-1-ethyl-8-fluoro-imidazo(1,5-a)quinoxaline] came in with a melting point of 139 to 142 °C. For the same compound, at PDE10 from pig striatum, the concentration for half-maximal inhibition (IC50) was ≥ 100 nM.
Take `CCCc1nc(C)c2c(C)nc3ccc(F)cc3n12` [Example 13, 3,4-Dimethyl-8-fluoro-1-propyl-imidazo(1,5-a)quinoxaline]: the melting point lay within 140 to 144 °C. Further, the IC50 against PDE10 from pig striatum lay in the range of 10 to 100 nM.
The matching figures for `Cc1nc(C2CCCCC2)n2c1c(C)nc1ccc(F)cc12` [Example 14, 1-Cyclohexyl-3,4-dimethyl-8-fluoro-imidazo(1,5-a)quinoxaline]: 195 to 200 °C and 10 to 100 nM.
Turning to `CCc1nc(C)c2c(C)nc3ccc(N4CCCCC4)cc3n12` [Example 17, 3,4-Dimethyl-1-ethyl-8-(piperidin-1-yl)-imidazo(1,5-a)quinoxaline], the melting point lay within 132 to 134 °C. Besides, the concentration for half-maximal inhibition (IC50) against PDE10 from pig striatum was in the range of 10 to 100 nM.
Turning to `Cc1nc(C2CCCCC2)n2c1c(N)nc1ccc(OCC3CC3)cc12` [Example 40, 1-Cyclohexyl-8-cyclopropylmethoxy-3-methyl-imidazo[1,5-a]quinoxalin-4-ylamine], the melting point lay within 241 to 242 °C. For the same compound, the IC50 on human recombinant PDE10A was ≥ 100 nM. The compound also gave a half-inhibitory concentration (IC50) on PDE10 from pig striatum of 10 to 100 nM.
Take `CCCc1nc(C)c2c(C)nc3ccc(OCC4CC4)cc3n12` [Example 42, 8-Cyclopropylmethoxy-3,4-dimethyl-1-propyl-imidazo[1,5-a]quinoxaline]: the melting point fell in the range of 110 to 112 °C. Further, the IC50 on human recombinant PDE10A lay within 10 to 100 nM. On PDE10 from pig striatum, this compound registered a half-inhibitory concentration (IC50) of 10 to 100 nM.
Compound `Cc1nc(C2CCCCC2)n2c1c(C)nc1ccc(OCC3CC3)cc12` [Example 44, 1-Cyclohexyl-8-cyclopropylmethoxy-3,4-dimethyl-imidazo[1,5-a]quinoxaline] registered a melting point of 154 to 157 °C. Moreover, the 50% inhibitory concentration (IC50) on human recombinant PDE10A is ≥ 100 nM. Besides, the IC50 against PDE10 from pig striatum fell in the range of 10 to 100 nM.
For `CCCc1nc(C)c2c(C)nc3c(OC)cc(OC)cc3n12` [Example 45, 6,8-Dimethoxy-3,4-dimethyl-1-propyl-imidazo[1,5-a]quinoxaline], the melting point lay within 185 to 187 °C. At human recombinant PDE10A, the IC50 was ≤ 10 nM. Besides, the concentration for half-maximal inhibition (IC50) against PDE10 from pig striatum is ≤ 10 nM.
Take `COc1ccc2c(c1)nc(C)c1c(C)nc(-c3ccccc3Cl)n12` [Example 47, 1-(2-Chloro-phenyl)-7-methoxy-3,4-dimethyl-imidazo[1,5-a]quinoxaline]: the melting point fell in the range of 186 to 188.5 °C. Further, the half-inhibitory concentration (IC50) on human recombinant PDE10A was 10 to 100 nM. Further, the IC50 against PDE10 from pig striatum is ≤ 10 nM.
The like results for `CCCc1nc(C)c2c(C)nc3cc(OCc4ccc5ccccc5n4)ccc3n12` [Example 49, 3,4-Dimethyl-1-propyl-7-(quinolin-2-ylmethoxy)-imidazo(1,5-a)quinoxaline] were, in that order, 134 to 136 °C, ≤ 10 nM and ≤ 10 nM.
Consider `Cc1nc(-c2ccccc2Cl)n2c1c(C)nc1c(OCC3CC3)cc(OCC3CC3)cc12` [Example 50, 1-(2-Chloro-phenyl)-6,8-bis-cyclopropylmethoxy-3,4-dimethyl-imidazo[1,5-a]quinoxaline], for which the melting point is 180 to 195 °C. In addition, the IC50 on human recombinant PDE10A is ≤ 10 nM. The half-inhibitory concentration (IC50) against PDE10 from pig striatum is ≤ 10 nM.
The compound `COc1cc(OC)c2nc(C)c3c(C)nc(C4CCCCC4)n3c2c1` [Example 51, 1-Cyclohexyl-6,8-dimethoxy-3,4-dimethyl-imidazo[1,5-a]quinoxaline] returned a melting point of 219 to 222 °C. Further, on human recombinant PDE10A, the IC50 is ≤ 10 nM. For the same compound, the IC50 at PDE10 from pig striatum was ≤ 10 nM.
For `COc1cc(OC)c2nc(C)c3c(C)nc(-c4ccccc4C)n3c2c1` [Example 52, 6,8-Dimethoxy-3,4-dimethyl-1-o-tolyl-imidazo[1,5-a]quinoxaline], the melting point was 168 to 169 °C. Moreover, at human recombinant PDE10A, the concentration for half-maximal inhibition (IC50) is ≤ 10 nM. In addition, on PDE10 from pig striatum, the IC50 is ≤ 10 nM.
In the case of `COc1cc(OC)c2nc(C)c3c(C)nc(-c4ccccc4Cl)n3c2c1` [Example 53, 1-(2-Chloro-phenyl)-6,8-dimethoxy-3,4-dimethyl-imidazo[1,5-a]quinoxaline], the melting point lay within 183 to 189 °C. The half-maximal inhibitory concentration (IC50) at human recombinant PDE10A is ≤ 10 nM. Also, at PDE10 from pig striatum, the IC50 is ≤ 10 nM.
Compound `CCc1nc(C)c2c(Cl)nc3ccccc3n12` [Intermediate B3] registered a melting point of 125 to 128 °C. Further, the 50% inhibitory concentration (IC50) at PDE10 from pig striatum was 10 to 100 nM.
With `CCCc1nc(C)c2c(Cl)nc3ccccc3n12` [Intermediate B4, 4-Chloro-3-methyl-1-propyl-imidazo(1,5-a)quinoxaline], the melting point fell in the range of 99 to 101 °C. Besides, at PDE10 from pig striatum, the IC50 lay within 10 to 100 nM.
`CCc1nc(C)c2c(Cl)nc3ccc(F)cc3n12` [Intermediate B5] yielded a melting point of 157 to 160 °C. Besides, the half-maximal inhibitory concentration (IC50) against PDE10 from pig striatum lay within 10 to 100 nM.
`CCCc1nc(C)c2c(Cl)nc3ccc(F)cc3n12` [Intermediate B6, 4-Chloro-8-fluoro-3-methyl-1-propyl-imidazo(1,5-a)quinoxaline] registered a melting point of 133 to 135 °C. Besides, the concentration for half-maximal inhibition (IC50) at PDE10 from pig striatum lay in the range of 10 to 100 nM.
Consider `Cc1nc(C2CCCCC2)n2c1c(Cl)nc1ccc(F)cc12` [Intermediate B7, 4-Chloro-1-cyclohexyl-8-fluoro-3-methyl-imidazo(1,5-a)quinoxaline], for which the melting point fell in the range of 205 to 210 °C. Moreover, the IC50 on PDE10 from pig striatum fell in the range of 10 to 100 nM.
For `Cc1nc(C2CCCCC2)n2c1c(Cl)nc1ccc(Cl)cc12` [Intermediate B9, 4,8-Dichloro-1-cyclohexyl-3-methyl-imidazo(1,5-a)quinoxaline], the melting point was 244 to 248 °C. The 50% inhibitory concentration (IC50) against PDE10 from pig striatum is ≥ 100 nM.
The like results for `CCCc1nc(C)c2c(Cl)nc3ccc(N4CCCCC4)cc3n12` [Intermediate B10] were, in that order, 105 to 108 °C and 10 to 100 nM.
For `COc1ccc(Cc2nccc3cc(OC)c(OC)cc23)cc1OC` [Papaverine], the “dopamine concentration in rat brain” value with rats [1] was “reducing”. Besides, in the data set with rats [2], the apomorphine-induced stereotypies entry is “reduces”. Also, in the data set with rats [3], the haloperidol-induced catalepsy result is “increases”.

The values above are taken from US7875618B2, “Substituted imidazo[1,5-a]quinoxalines useful as inhibitors of phosphodiesterase 10 for the treatment of neurological and other disorders” (Wyeth, priority 2007, dated 2011).
